Values after ≈ are worked out from the molar mass of the structure shown. Residues, ends and D or L forms follow the SMILES beside them.
How the values were obtained:
[1] = Solubility of IN-derived peptides in PBS; type: physicochemical; details: for Solubility: at 0 min, verified at 60 min, LC-MS
Method: (§1) Analytic HPLC-MS was performed using an Agilent 1260 series Liquid Chromatography/Mass Selective Detector (MSD) equipped with an electrospray interface and a UV diode array detector. Analyses were performed on an ACE C8, 50 × 3.0 mm, 3 µm column, with an isocratic 0.1% formic acid/ACN eluent, at a rate of 1 ml/min over a period of 5 min. UV absorption was measured at 280 nm, 220 nm, and 215–395 nm. MS analysis was performed with ESI (electron spray ionization) with a positive ionization method.
(§2) Four reaction systems were prepared; INS and INR2 in human plasma, INS and INR2 in rat plasma (Supplementary Table 2). Freshly prepared 10 mg/ml stock solution of the peptides was injected into plasma or PBS solution (1:1). The mixture was diluted with methanol to precipitate the plasma proteins. The samples were filtered through PTFE 0.45 µm filters and run in LC-MS. Samples were taken at the following times: 0, 15, 30, 60, 120, 240, and 480 min and after 24 h.
(§3) Plasma solubility was determined at 0 min and was verified at 60 min (if no degradation was observed).

SD rats = test: 28-day repeated dose toxicity study; type: in vivo, rat; details: slow IV bolus twice weekly for 4 weeks, 4 weeks recovery; male and female SD rats; highest dose tested
Method: Four weeks of repeated dosing followed by four weeks of recovery was performed in female and male SD rats, via slow IV bolus of the INS peptide. Eighty rats (40 males and 40 females) were utilized for the main study groups (n = 10 per study group). An additional 40 animals (20 males and 20 females) were used as recovery groups (n = 5 per study group). Group allocation was done without investigator blinding. Study evaluations included: mortality and morbidity, body weight, food consumption, clinical signs, ophthalmological observation, blood collection for hematology, clinical chemistry, coagulation, urine analysis, necropsy, and gross pathology, organ weight, and histopathology. The study was approved by the Institutional Review Board of Tel Aviv Sourasky Medical Center.

[2] = Stability test in rat plasma; type: in vitro ADME; details: for Analyte Remaining %: 10 mg/ml stock into plasma 1:1, LC-MS; for Concentration calculated from LC-MS data: 10 mg/ml stock into plasma 1:1, methanol precipitation, 0.45 µm filtration
Method: as §1, §2

HeLa cells = tested on: HeLa cells; parameters: method as in PMID 20517955; details: cited from earlier work
[3] = Solubility of IN-derived peptides in rat plasma; type: physicochemical; details: LC-MS
Method: as §1, §2, §3

[4] = tested on: Lymphocytes of healthy volunteers; test: Cytotoxicity of peptides, WST-1; type: cell-based, human; details: peptide alone
Method: Written informed consent was obtained from all eligible participants prior to entry into the study. Approval for this study was provided by Kaplan Medical Center’s Ethics Committee (Protocol No. ZMS1/2016). Lymphocytes of healthy volunteers were isolated from the peripheral blood by Ficoll-Paque density gradient centrifugation. Cells were incubated in DMEM with different peptide concentrations for 72 h. Then, 100 µl of cells were taken for toxicity testing using a quantitative cell viability test, the WST-1 assay.

H1975 lung cancer cells = test: Cytotoxicity of peptides without lentiviral particles, MTT; type: cell-based, human; details: peptide alone, three times over ten days
Method: H1975 lung cancer cells were treated three times over the course of 10 days (on days 2, 4, and 7) with different concentrations of the tested peptides. Following ten days of incubation, cells were analyzed for potential toxicity using a quantitative cell viability test, the MTT assay.

[5] = Stability test in human plasma; type: in vitro ADME; details: for Analyte Remaining % / Concentration calculated from LC-MS data: human plasma, 10 mg/ml stock into plasma 1:1, LC-MS; for Concentration calculated from LC-MS data: methanol precipitation, 0.45 µm filtration; for Stability: rat and human plasma
Method: as §1, §2

CC[C@H](C)[C@H](NC(=O)[C@H](Cc1ccccc1)NC(=O)[C@@H](NC(=O)[C@H](C)NC(=O)[C@H](CCSC)NC(=O)[C@H](CCC(N)=O)NC(=O)[C@@H](NC(=O)[C@H](C)NC(=O)[C@@H](NC(=O)[C@@H](N)Cc1c[nH]c2ccccc12)[C@@H](C)O)C(C)C)C(C)C)C(=O)N[C@@H](Cc1c[nH]cn1)C(=O)N[C@@H](CC(N)=O)C(=O)N[C@@H](Cc1ccccc1)C(=O)N[C@@H](CCCCN)C(=O)N[C@@H](CCCNC(=N)N)C(=O)N[C@@H](CCCCN)C(=O)O [INS] (H-WTAVQMAVFIHNFKRK-OH)
Solubility ([1]; % of 5 mg/mL sample): 89.2%
Solubility ([1]; from 5 mg/mL sample (10 mg/ml stock into PBS 1:1), methanol dilution, PTFE 0.45 µm filtration): 4.46 mg/mL (≈ 2260 µM)
Solubility (in words) ([1]; rat and human plasma): highly soluble
no-observed-adverse-effect level (NOAEL) (SD rats): 7.5 mg/kg
Analyte Remaining % ([2]; 0 h): 80.3%
Concentration calculated from LC-MS data ([2]; 0 h): 4010 µg/mL
Analyte Remaining % ([2]; 0.25 h): 68.2%
Concentration calculated from LC-MS data ([2]; 0.25 h): 3410 µg/mL
Analyte Remaining % ([2]; 0.5 h): 65.3%
Concentration calculated from LC-MS data ([2]; 0.5 h): 3260 µg/mL
Analyte Remaining % ([2]; 1 h): 58.9%
Concentration calculated from LC-MS data ([2]; 1 h): 2940 µg/mL
Analyte Remaining % ([2]; 2 h): 50.5%
Concentration calculated from LC-MS data ([2]; 2 h): 2530 µg/mL
Analyte Remaining % ([2]; 4 h): 38.6%
Concentration calculated from LC-MS data ([2]; 4 h): 1930 µg/mL
Analyte Remaining % ([2]; 8 h): 36.1%
Concentration calculated from LC-MS data ([2]; 8 h): 1800 µg/mL
Analyte Remaining % ([2]; 24 h): 14.8%
Concentration calculated from LC-MS data ([2]; 24 h): 740 µg/mL
Cell permeability (HeLa cells): cell-permeable
Toxicity (HeLa cells): non-toxic
Solubility ([3]; % of 5 mg/mL sample): 80.2%
Solubility ([3]; from 5 mg/mL sample (10 mg/ml stock into plasma 1:1), at 0 min, verified at 60 min, methanol precipitation, PTFE 0.45 µm filtration): 4.01 mg/mL (≈ 2030 µM)
Viability of primary lymphocytes [4]: not affected
Effect on lung cancer cell viability (H1975 lung cancer cells): no effect
Analyte Remaining % ([5]; 0 h): 65.7%
Concentration calculated from LC-MS data ([5]; 0 h): 3290 µg/mL
Analyte Remaining % ([5]; 0.25 h): 60.9%
Concentration calculated from LC-MS data ([5]; 0.25 h): 3040 µg/mL
Analyte Remaining % ([5]; 0.5 h): 71.1%
Concentration calculated from LC-MS data ([5]; 0.5 h): 3590 µg/mL
Analyte Remaining % ([5]; 1 h): 58.4%
Concentration calculated from LC-MS data ([5]; 1 h): 2920 µg/mL
Analyte Remaining % ([5]; 2 h): 62.7%
Concentration calculated from LC-MS data ([5]; 2 h): 3130 µg/mL
Analyte Remaining % ([5]; 4 h): 62.2%
Concentration calculated from LC-MS data ([5]; 4 h): 3110 µg/mL
Analyte Remaining % ([5]; 8 h): 44.2%
Concentration calculated from LC-MS data ([5]; 8 h): 2210 µg/mL
Analyte Remaining % ([5]; 24 h): 23.8%
Concentration calculated from LC-MS data ([5]; 24 h): 1190 µg/mL
Stability ([5]; after 8 h): 40%
Stability ([5]; after 24 h): ~ 25%

From PMC8175240, “Integrase-derived peptides together with CD24-targeted lentiviral particles inhibit the growth of CD24 expressing cancer cells” (Oncogene, 2021)
